Results on 35 molecules are retold here after US8754100B2, “Nitrogen-containing fused heterocyclic compounds and their use as beta amyloid production inhibitors” (EISAI R&D Management Co., Ltd., priority 2009, dated 2014).

The structures appear in SMILES notation.

In one assay the test system is Aβ42 production in rat primary neuronal culture. Description: Quantification of Aβ peptide (Aβ42 ELISA) in culture of neurons from rat fetus brain. Type of assay: cell-based. Conditions: Rattus norvegicus, Neuron, 72 h; primary neuronal culture from cerebral cortex of embryonic day 18 Wistar rats; cultured three days after addition of compound; Aβ42 in medium by ELISA; read-out: Aβ42 Production reducing action IC50. As for the experimental part: Quantification of Aβ Peptide in Culture of Neurons from Rat Fetus Brain
(1) Rat Primary Neuronal Culture
Primary neuronal cultures were prepared from the cerebral cortex of embryonic day 18 Wistar rats (Charles River Japan, Yokohama, Japan). Specifically, the embryos were aseptically removed from pregnant rats under ether anesthesia. The brain was isolated from the embryo and immersed in an ice-cold L-15 medium (Invitrogen Corp. Cat #11415-064, Carlsbad, Calif., USA, or SIGMA L1518, for example). The cerebral cortex was collected from the isolated brain under a stereoscopic microscope. The cerebral cortex fragments collected were enzymatically treated in an enzyme solution containing 0.25% trypsin (Invitrogen Corp. Cat #15050-065, Carlsbad, Calif., USA) and 0.01% DNase (Sigma D5025, St. Louis, Mo., USA) at 37° C. for 30 minutes to disperse the cells. Here, the enzymatic reaction was stopped by adding inactivated horse serum to the solution. The enzymatically treated solution was centrifuged at 1,500 rpm for five minutes to remove the supernatant 5 to 10 ml of a medium was added to the resulting cell mass. Neurobasal medium (Invitrogen Corp. Cat #21103-049, Carlsbad, Calif., USA) supplemented with 2% B27 supplement (Invitrogen Corp. Cat #17504-044, Carlsbad, Calif., USA), 25 μM 2-mercaptoethanol (2-ME, WAKO Cat #139-06861, Osaka, Japan), 0.5 mM L-glutamine (Invitrogen Corp. Cat #25030-081, Carlsbad, Calif., USA), and Antibiotics-Antimycotics (Invitrogen Corp. Cat #15240-062, Carlsbad, Calif., USA) was used as the medium (Neurobasal/B27/2-ME). However, the above Neurobasal medium not supplemented with 2-ME (Neurobasal/B27) was used for the assay. The cells were redispersed by mild pipetting of the cell mass to which the medium was added. The cell dispersion was filtered through a 40-μm nylon mesh (Cell Strainer, Cat #35-2340, Becton Dickinson Labware, Franklin Lakes, N.J., USA) to remove the remaining cell mass, and thus a neuronal cell suspension was obtained. The neuronal cell suspension was diluted with the medium and then plated in a volume of 100 μl/well at an initial cell density of 5×10^5 cells/cm^2 in a 96-well polystyrene culture plate pre-coated with poly-L or D-lysine (Falcon Cat #35-3075, Becton Dickinson Labware, Franklin Lakes, N.J., USA coated with poly-L-lysine using the method shown below, or BIOCOAT™ cell environments Poly-D-lysine cell ware 96-well plate, Cat #35-6461, Becton Dickinson Labware, Franklin Lakes, N.J., USA). Poly-L-lysine coating was carried out as follows. 100 μg/ml of a poly-L-lysine (SIGMA P2636, St. Louis, Mo., USA) solution was aseptically prepared with a 0.15 M borate buffer (pH 8.5). […] Thereafter, the coated 96-well polystyrene culture plate was washed with sterile water four or more times, and then dried or rinsed with sterile PBS or medium, and used for cell plating. The plated cells were cultured in the culture plate at 37° C. in 5% CO2-95% air for one day. Then, the total amount of the medium was replaced with a fresh Neurobasal/B27/2-ME medium, and then the cells were cultured for further three days.
The drug was added to the culture plate on Day 4 of culture as follows. The total amount of the medium was removed from the wells, and 180 μl/well of Neurobasal medium not containing 2-ME and containing 2% B-27 (Neurobasal/B27) was added thereto. A solution of the test compound in dimethyl sulfoxide (hereinafter abbreviated as DMSO) was diluted with Neurobasal/B27 to a concentration 10-fold higher than the final concentration. 20 μl/well of the dilution was added to and sufficiently mixed with the medium. The final DMSO concentration was 1% or less. Only DMSO was added to the control group.
The cells were cultured for three days after addition of the compound, and the total amount of the medium was collected. The resulting medium was used as an ELISA sample. […]
Background: ELISA stands for enzyme-linked immunosorbent assay.
Consider `COc1nc(-c2nc3n(n2)CCC[C@@H]3c2cc(-c3ccc(C(F)(F)F)cn3)ccc2Cl)ccc1-n1cnc(C)c1` (stereo in doubt) [Example 361, (−)-8-[2-chloro-5-(5-trifluoromethylpyridine-2-yl)phenyl]-2-[6-methoxy-5-(4-methyl-1H-imidazole-1-yl)pyridine-2-yl]-5,6,7,8-tetrahydro[1,2,4]triazolo[1,5-a]pyridine], for which the IC50 (as a rule, the midpoint of a concentration-inhibition curve) turned out to be 13 nM.

As for `COc1nc(-c2nc3n(n2)CCC[C@H]3c2ccc(N3CCCCCC3)cc2)ccc1-n1cnc(C)c1` [Example 383], the IC50 was 21 nM.

Turning to `COc1nc(-c2nc3n(n2)CCC[C@H]3c2ccc3c(c2)C(C)(C)CN3CC(F)(F)F)ccc1-n1cnc(C)c1` [Example 337], the IC50 was determined as 13 nM.

For `COc1nc(-c2nc3n(n2)CCC[C@H]3c2cc(C(C)(C)C#N)c(Cl)cc2Cl)ccc1-n1cnc(C)c1` [Example 225], the IC50 amounted to 28 nM.

Turning to `COc1nc(-c2nc3n(n2)CCC[C@H]3c2ccc(N(CC(F)(F)F)C3CC3)cc2Cl)ccc1-n1cnc(C)c1` [Example 309], the IC50 worked out at 14 nM.

Consider `COc1nc(-c2nc3n(n2)CCC[C@H]3c2cc(N(CC3CC3)CC3CC3)ccc2Cl)ccc1-n1cnc(C)c1` [Example 315], for which the IC50 was determined as 4 nM.

`COc1nc(-c2nc3n(n2)CCC[C@H]3c2ccc(Cl)c(N3CCCCC3)c2)ccc1-n1cnc(C)c1` [Example 287]: the IC50 is 22 nM.

Consider `COc1nc(-c2nc3n(n2)CCC[C@H]3c2cc(N3CC(C)CC(C)C3)ccc2Cl)ccc1-n1cnc(C)c1` (some centres unmarked) [Example 319], for which the IC50 worked out at 10 nM.

As to `COc1nc(-c2nc3n(n2)CCC[C@H]3c2cc(-c3ccccc3)ccc2Cl)ccc1-n1cnc(C)c1` [Example 359], the 50% inhibitory concentration (IC50) came to 16 nM.

Regarding `COc1nc(-c2cn3c(n2)[C@H](c2cccc(C(C)(C)C)c2OC)CCC3)ccc1-n1cnc(C)c1` [Example 239], the IC50 was determined as 12 nM.

With `COc1nc(-c2nc3n(n2)CCC[C@@H]3c2cc(C(C)(C)OC)ccc2Cl)ccc1-n1cnc(C)c1` [Example 267, (−)-2-[6-methoxy-5-(4-methyl-1H-imidazol-1-yl)pyridin-2-yl]-8-(2-chloro-5-(1-methoxy-1-methylethyl)phenyl)-5,6,7,8-tetrahydro[1,2,4]triazolo[1,5-a]pyridine], the IC50 stood at 29 nM.

For the molecule `COc1nc(-c2nc3n(n2)CCC[C@H]3c2cc(N3CCCC3)ccc2Cl)ccc1-n1cnc(C)c1` [Example 347], the IC50 came out at 30 nM.

Take `COc1nc(-c2cn3c(n2)C(c2ccccc2C(F)(F)F)CCC3)ccc1-n1cnc(C)c1` (single isomer, unassigned) [Example 102, (−)-2-[6-methoxy-5-(4-methylimidazol-1-yl)pyridin-2-yl]-8-(2-trifluoromethylphenyl)-5,6,7,8-tetrahydroimidazo[1,2-a]pyridine]: the IC50 was 55 nM.

As for `COc1nc(-c2nc3n(n2)CCC[C@H]3c2cc(C(C)(C)C)c(F)cc2F)ccc1-n1cnc(C)c1` [Example 211], the IC50 worked out at 15 nM.

With `COc1nc(-c2nc3n(n2)CCC[C@H]3c2cc(N3CCCCC3)ccc2Br)ccc1-n1cnc(C)c1` [Example 279], the IC50 came to 8 nM.

For the molecule `COc1nc(-c2nc3n(n2)CCC[C@H]3c2ccc(N3CCCCC3)cc2Cl)ccc1-n1cnc(C)c1` [Example 295], the IC50 was 33 nM.

For `COc1nc(-c2cn3c(n2)[C@H](c2cc(Br)ccc2C(F)(F)F)CCC3)ccc1-n1cnc(C)c1` [Example 250], the IC50 turned out to be 13 nM.

With `COc1nc(-c2cn3c(n2)[C@H](c2ccccc2C(F)(F)F)CC3)ccc1-n1cnc(C)c1` (single isomer, unassigned) [Example 104, (−)-2-[6-methoxy-5-(4-methylimidazol-1-yl)pyridin-2-yl]-7-(2-trifluoromethylphenyl)-6,7-dihydro-5H-pyrrolo[1,2-a]imidazole], the 50% inhibitory concentration (IC50) was 91 nM.

With `COc1nc(-c2cn3c(n2)[C@H](c2ccc(C(C)(C)C#N)cc2Cl)CCC3)ccc1-n1cnc(C)c1` [Example 246], the IC50 came out at 55 nM.

Regarding `COc1cc([C@@H]2CCCn3nc(-c4ccc(-n5cnc(C)c5)c(OC)n4)nc32)ccc1C(C)(C)C` [Example 191], the IC50 was 7 nM.

For `COc1nc(-c2nc3n(n2)CCC[C@H]3c2cc(N3CCC(C(F)(F)F)CC3)ccc2Cl)ccc1-n1cnc(C)c1` [Example 317], the IC50 is 15 nM.

For the molecule `COc1nc(-c2cn3c(n2)[C@H](c2ccc(C(C)(C)C)cc2)CCC3)ccc1-n1cnc(C)c1` [Example 242], the IC50 came out at 9 nM.

Consider `COc1nc(-c2cn3c(n2)[C@H](c2ccc(Cl)cc2C(F)(F)F)CCC3)ccc1-n1cnc(C)c1` (single isomer, unassigned) [Example 108, (−)-8-(4-chloro-2-trifluoromethylphenyl)-2-[6-methoxy-5-(4-methylimidazol-1-yl)pyridin-2-yl]-5,6,7,8-tetrahydroimidazo[1,2-a]pyridine], for which the half-maximal inhibitory concentration (IC50) was 18 nM.

For `COc1cc([C@@H]2CCCn3nc(-c4ccc(-n5cnc(C)c5)c(OC)n4)nc32)cc(C(C)(C)C)c1` [Example 187], the IC50 amounted to 11 nM.

Consider `COc1nc(-c2cn3c(n2)[C@H](c2cc(C(C)(C)C#N)ccc2Cl)CCC3)ccc1-n1cnc(C)c1` [Example 245], for which the half-inhibitory concentration (IC50) worked out at 16 nM.

Take `COc1nc(-c2nc3n(n2)CCC[C@H]3c2ccc(N(CC3CC3)CC(F)(F)F)cc2Cl)ccc1-n1cnc(C)c1` [Example 307]: the IC50 came out at 13 nM.

In the case of `COc1nc(-c2nc3n(n2)CCC[C@H]3c2cc(N3CCC(C)CC3)ccc2Cl)ccc1-n1cnc(C)c1` [Example 311], the IC50 is 12 nM.

For `COc1nc(-c2nc3n(n2)CCC[C@H]3c2cccc(C(C)(C)C)c2)ccc1-n1cnc(C)c1` [Example 193], the IC50 is 13 nM.

For the molecule `COc1nc(-c2nc3n(n2)CCC[C@H]3c2cc(C(C)(C)C)ccc2Br)ccc1-n1cnc(C)c1` [Example 199], the concentration for half-maximal inhibition (IC50) is 6 nM.

On to `COc1nc(-c2cn3c(n2)[C@H](c2ccc(Br)cc2C(F)(F)F)CCC3)ccc1-n1cnc(C)c1` [Example 100, (−)-8-(4-bromo-2-trifluoromethylphenyl)-2-[6-methoxy-5-(4-methylimidazol-1-yl)pyridin-2-yl]-5,6,7,8-tetrahydroimidazo[1,2-a]pyridine], for which the IC50 stood at 9 nM.

Regarding `COc1ccc(C(C)(C)C(F)(F)F)cc1[C@@H]1CCCn2nc(-c3ccc(-n4cnc(C)c4)c(OC)n3)nc21` [Example 331], the IC50 came out at 12 nM.

In the case of `COc1nc(-c2nc3n(n2)CCC[C@H]3c2cc(C(C)(C)C)ccc2F)ccc1-n1cnc(C)c1` [Example 197], the IC50 stood at 13 nM.

With `COc1cc(C)c(C2CCCn3nc(-c4ccc(-n5cnc(C)c5)c(OC)n4)nc32)cc1C(C)C` (single isomer, unassigned; (-)) [Example 2, (−)-8-(5-isopropyl-4-methoxy-2-methylphenyl)-2-[6-methoxy-5-(4-methylimidazol-1-yl)pyridin-2-yl]-5,6,7,8-tetrahydro[1,2,4]triazolo[1,5-a]pyridine], the IC50 is 10 nM.

Staying with this assay, now noted: primary neuronal culture from cerebral cortex of embryonic day 18 Wistar rats; cultured three days after addition of compound; Aβ42 in medium by ELISA; read-out: Aβ42 Production reducing action IC50.
In the case of `COc1nc(-c2nc3n(n2)CCC[C@H]3c2ccc(Br)cc2C(F)(F)F)ccc1-n1cnc(C)c1` [Example 42, −8-4-bromo-2-trifluoromethylphenyl-2-[6-methoxy-5-(4-methylimidazol-1-yl)pyridin-2-yl]-5,6,7,8-tetrahydro[1,2,4]triazolo[1,5-a]pyridine], the IC50 was found to be 52 nM.

With `COc1ccc([C@@H]2CCCn3nc(-c4ccc(-n5cnc(C)c5)c(OC)n4)nc32)cc1C(C)(C)C` [Example 59], the 50% inhibitory concentration (IC50) stood at 7 nM.
